Experiments:
MPTP monkeys = test: post-synaptic dopaminergic activity in MPTP monkeys; assay type: in vivo, rhesus monkey
Text: 6. Determining the post-synaptic dopaminergic activity in MPTP monkeys (Modified Method of R. S. Burns et al., Proc. Natl. Acad. Sci. 80. 4546 (1983))
The neurotoxin 1-methyl-4-phenyl-1,2,3,6- tetrahydro-pyridine (MPTP) produces in humans and monkeys an irreversible syndrome which in its clinical, pathological, biochemical and pharmacological appearance is very similar to idiopathic Parkinson's disease (Markey et al., Nature 311, 464 (1984)). The reason for this similarity is that MPTP selectively destroys those dopaminergic nerve cells in the substantia nigra of the brain which are also lost by degenerative processes in Parkinson's disease. There is even some discussion that MPTP or an MPTP-like substance might be formed in the body and trigger Parkinson's disease (S. H. Snyder, Nature 311, 514 (1984)). Possibly because of the specific MPTP metabolism, the clinical formation of the MPTP-induced Parkinson syndrome has hitherto been detected only in humans and monkeys. The MPTP model produced in the rhesus monkey is therefore exceptionally suitable for testing the activity of post-synaptically acting dopamine agonists. For this purpose, rhesus monkeys were given MPTP in overall doses of up to about 6 mg/kg of body weight, until the following symptoms appeared: The animals were akinetic and unable to take water and food.
It is clear that with the compounds according to the invention there is no sedative effect or ataxia at a dosage which is several times the MED, which can be put down to the absence of a corresponding activity mediated by the α2- receptors.

alpha-2 receptors = biological target: T1, alpha-2 receptors (Rattus norvegicus, UniProt P22909); test: affinity for alpha-2 receptors by displacement experiments with [3H]-clonidine (rat cortex membranes); assay type: binding; conditions: read-out: α2-IC50
T1 sequence (P22909 1-465): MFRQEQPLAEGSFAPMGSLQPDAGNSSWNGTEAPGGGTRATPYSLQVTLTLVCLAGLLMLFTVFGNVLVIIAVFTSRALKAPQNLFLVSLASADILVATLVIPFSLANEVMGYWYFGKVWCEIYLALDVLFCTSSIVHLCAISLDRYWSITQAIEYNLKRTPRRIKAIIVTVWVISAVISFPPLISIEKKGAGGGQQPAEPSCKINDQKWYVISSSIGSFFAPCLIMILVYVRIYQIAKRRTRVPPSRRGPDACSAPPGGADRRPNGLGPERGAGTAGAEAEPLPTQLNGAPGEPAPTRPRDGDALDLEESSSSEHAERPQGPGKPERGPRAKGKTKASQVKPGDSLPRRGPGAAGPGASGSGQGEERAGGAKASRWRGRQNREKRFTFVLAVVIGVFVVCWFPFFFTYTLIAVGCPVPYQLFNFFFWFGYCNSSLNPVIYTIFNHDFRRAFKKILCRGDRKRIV
Method: Determination of the affinity for alpha-2 receptors by displacement experiments with [^3 H] clonidine (Modified Method of B. Jarrott, W. J. Louis and R. J. Summers, Biochem. Pharmacol. 27, 141 (1979))
A male rat (Chbb:Thom strain weighing about 200 g) was killed by a blow to the back of the neck. The brain was removed and the cortex dissected out, weighed and homogenised in 25 volumes of tris buffer (50 mM tris- HCl, pH 7.50) for 30 seconds in an Ultra-Turrax at maximum speed, followed by 10° Cycles in a Potter- Elvehjem at 1400 rpm. The homogenised material was combined with tris buffer to obtain a homogenate dilution of 1:50 (based on the weight of the cortex).
1 ml aliquots of the membrane preparation were incubated for three hours at ambient temperature with 1 ml of a solution of 1 nM of [^3 H]-clonidine (2.2 TBq/mmol, Messrs. DuPont NEN) and with increasing concentrations of the test substance (10^-11 to 10^-4 M). Incubation was ended by the addition of 5 ml of ice-cold tris buffer and filtration through Whatman GF/B filters. The filters were washed twice, each time with 5 ml of ice cold buffer. The radioactivity of the filters was determined by liquid scintillation measurement in Instagel(R) (Messrs. Canberra Packard). The non-specific binding was determined in the presence of 10^-5 M of oxymetazoline (Sigma Chemical Co.).

[1] = system: hypersensitive dopamine receptor; test: motility triggering in the mouse treated 24 hours earlier with reserpine; assay type: in vivo; conditions: Mus musculus, sc; reserpine-treated mice, s.c.; read-out: DLi50 (dosage resulting in 50 running pulses every 5 minutes)
Method: This test determines predominantly agonistic effects on the hypersensitive dopamine receptor.
Male mice are treated 24 hours before the experiment with 5 mg/kg i.p. reserpine. The animals are kept at 25°-30° C. and treated three times with 2 ml of a 5% glucose solution in tyrode s.c. (the first time when the reserpine is given, the second time in the evening of the pre-treatment day and the third time on the morning of the test day).
[…] (The injection volume is usually 0.1 ml/10 g of body weight). 30 minutes later the groups of animals are placed in the observation cages (measuring 42 x 24 x 8 cm) and fitted with an infrared lightbeam in order to measure their activity. The value measured is the frequency with which a group of 6 mice pass through the infra-red beam within 5 minutes ("running pulses/5 minutes"; mean at n=3; mean±s.e.m. at n=6).
3 to 6 groups are tested for each substance.

dopamine D2-receptors = dopamine D2-receptors (Rattus norvegicus, UniProt P61169); test: affinity for dopamine D2-receptors by displacement experiments with [3H]-spiperone (rat striatum membranes); assay type: binding
Method: 1Determining the affinity for dopamine D2-receptors by displacement experiments with [^3 H]-spiperone (Modified Method of W. Billard et al., Life Sci. 35, 1885 (1984) and D. J. de Vries and P. M. Beart, Eur. J. Pharmacol. 109, 417 (1985))
Male rats (of the Chbb:Thom strain weighing about 200 g) were killed by a blow to the back of the neck. The brains were removed and dissected on ice. The striata were dissected out, weighed and homogenised in 25 volumes of tris buffer (50 mM tris-HCl, 1 mM EDTA, 5 mM MgCl2 and 1 mM ascorbic acid) for 30 seconds in an Ultra-Turrax at maximum speed, followed by 10 cycles in a Potter-Elvehjem at 1400 rpm. The pellet obtained after centrifuging at 50,000×g at 4° C. for 15 minutes was again taken up in 25 ml of tris buffer and centrifuged under the above conditions. The supernatant was discarded and the pellet obtained was incubated in 25 ml of tris buffer at 37° C. for 30 minutes and then centrifuged again at 50,000×g at 4° C. for 15 minutes. Finally, the pellet obtained was mixed with tris buffer to obtain a homogenate dilution of 1:500 (based on the weight of the striata).
1 ml aliquots of the membrane preparation were incubated with 1 ml of a solution of 0.25 nM [^3 H]-spiperone ([…], Messrs. DuPont NEN) and at increasing concentrations of the test substance (10^-11 to 10^-4 M) at ambient temperature for one hour. Incubation was ended by the addition of 5 ml of ice cold tris buffer and filtration using Whatman GF/B filters. The filters were washed twice, each time with 5 ml of ice cold buffer. The radioactivity of the filters was determined by liquid scintillation measurement in Instagel^(R) (Messrs. Canberra Packard). Non-specific binding was determined in the presence of 10^-5 M haloperidol (Sigma Chemical Co.).
Displacement curves were obtained from the data using the TOPFIT programming package (G. Heinzel in "Pharmacokinetics During Drug Development: Data Analysis and Evaluation Techniques", G. Bozler and J. M. van Rossum Eds., G. Fischer Verlag, Stuttgart 1982, 207).

dopamine D2-receptors, sequence (P61169 whole entry): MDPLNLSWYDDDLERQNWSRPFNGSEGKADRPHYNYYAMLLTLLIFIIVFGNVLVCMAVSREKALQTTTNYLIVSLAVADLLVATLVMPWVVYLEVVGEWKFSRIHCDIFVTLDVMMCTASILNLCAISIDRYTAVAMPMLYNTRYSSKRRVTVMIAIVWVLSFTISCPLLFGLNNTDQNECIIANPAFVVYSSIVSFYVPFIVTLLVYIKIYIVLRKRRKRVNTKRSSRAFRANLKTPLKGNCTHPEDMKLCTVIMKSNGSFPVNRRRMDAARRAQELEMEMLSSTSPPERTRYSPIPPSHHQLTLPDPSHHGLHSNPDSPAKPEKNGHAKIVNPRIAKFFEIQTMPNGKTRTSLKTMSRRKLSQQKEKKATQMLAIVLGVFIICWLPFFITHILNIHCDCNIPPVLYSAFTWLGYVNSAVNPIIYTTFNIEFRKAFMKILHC

SMILES | Duration of activity (MPTP monkeys; 0.05 mg/kg i.m. (MED)) [h] | Side effects (MPTP monkeys; 0.05 mg/kg i.m. (MED)) | Duration of activity (MPTP monkeys; 3.00 mg/kg i.m.) [h] | minimal effective dose (MPTP monkeys; Primates, in Macaca mulatta, im, rhesus monkeys, i.m., read-out: minimum dose (MED) required to alleviate the Parkinson's symptoms) [mg/kg] | IC50 (alpha-2 receptors) [nM] | ED (50 running pulses/5 min) [1] [mg/kg] | Ki (dopamine D2-receptors; [3H]-spiperone, high-affinity form of the dopamine receptor) [nM] | α2-IC50 / D2-Ki (dopamine D2-receptors; relative affinity for dopamine-D2 receptors compared with α2-adrenoceptors, the higher, the higher the D2/α2 selectivity)
Nc1nc2c(s1)CCN(CC=Cc1ccccn1)CC2 [Example 11a, 2-Amino-6-(3-(2-pyridyl)allyl)-4,5,7,8-tetrahydro-6H-thiazolo[5,4-d]azepin] | 1.5 to 2 | none | 5 | 0.05 | 760 | 0.35 | 4.3 | 176
Nc1nc2c(s1)CCN(CC=Cc1cccnc1)CC2 [Example 11b, 2-Amino-6-(3-(3-pyridyl)allyl)-4,5,7,8-tetrahydro-6H-thiazolo[5,4-d]azepine] | – | – | – | – | – | 0.29 | – | –
